Laboratory results published in patent US20120035187A1 (priority 2009, published 2012).

Columns and labels:
[1] = tested on: hamsters with cerebellar ataxia; test: Slant tolerance test in hamsters with cerebellar ataxia; type: in vivo, hamster; conditions: for Endurable-slant-slope-angle (°): hamster with cerebellar ataxia, agent of Example 1, 0.5 ml/hamster intraperitoneally once a day for 56 days; for endurable-slant-slope-angle (degree): cerebellar ataxia hamsters
From the text: Since NK-4 was confirmed to have a neurodegenerative inhibitory action in Experiment 1, hamsters with cerebellar ataxia (cerebellar ataxia is called “cerebellar A” and hamsters with cerebellar ataxia are called “hamsters with cerebellar A”, hereinafter) as a suitable model for human neurodegenerative diseases (e.g., spinal cerebellar degeneration) were subjected to examine the influence of NK-4 administration on their behaviors and brain tissues. Twenty-five hamsters with natural mutation (Nna1 inhibition), which are known to lose Purkinje's cells after three-weeks of age and then induce a spontaneous onset of kinetic motor ataxia after seven-weeks of age (see Akita K. et al., “J. Neurogenetics”, Vol. 21, pp. 19-29, 2007), had been fed at Hayashibara Biochemical Laboratories., Inc., Okayama, Japan, were randomly allocated to the test groups 1 to 5, five heads in each group, as shown in Table 2. Prior to the onset of cerebellar A (at three-weeks of age), PBS was started to administer to the hamsters in the test group 1 at a dose of 10 ml/kg/day. Prior to the onset of cerebellar A (at three-weeks of age), NK-4 was started to be administered to the hamsters in the test groups 2 to 4 at a daily dose of 20 μg/kg, 100 μg/kg or 500 μg/kg. “IGF-1, human, a product name of insulin-like growth factor, commercialized by Assaypro LLC, MO, USA. These administered ingredients were intraperitoneally administered daily to hamsters once a day up to 10-weeks of age. The degree of symptom of cerebellar A and the improvement effect on the symptom by NK-4 were evaluated with an index of improvement in motor coordination of hamsters by conducting once a week the later described rotarod test and the slant tolerance test. At the age of 10-weeks, the hamsters were subjected to counting the falling down frequency and extracted their brains, which were then histologically evaluated. In parallel, the concentration of glutamic acid in the bloods and cerebrospinal fluids (CSF) of the hamsters was assayed. As a test group 6, five normal hamsters, with the same age as the hamsters with cerebellar A used in the test groups 1 to 5, were provided and tested similarly as the hamsters with cerebellar A in such a manner of intraperitoneally administering PBS to them at a dose of 10 ml/kg/day once a day up to 10-weeks of age.
Hamsters were placed on a slope-angle-variable-board while keeping their heads upward, followed by determining the angle for allowing the hamsters to keep staying thereupon for five seconds for use as an endurable-slant-slope-angle test (see Rivlin et al., “J. Neurosurg.”, Vol. 47, pp. 577-581, […]). The initial slope angle was set to 25 degrees and increased by 5 degrees step by step. When a tested hamster in a static condition fell down within five seconds, the slope angle was decreased by one degree step by step, followed by judging the angle that allows the hamster to keep static staying for five seconds, measuring the tolerable slant-slope-angle, and averaging the data for five heads in each group.
Similarly as in Experiment 2, 130 hamsters with cerebellar ataxia, born within the same week and 3-weeks of age, were randomly divided into 13 groups, consisting of 10 hamsters, respectively. […] The hamsters (10 heads) in the remaining one group were intraperitoneally administered from their age of 3- to 10-weeks with a sterilized 10% maltose solution (pyrogen-free) in an amount of 0.5 ml/hamster (control) once a day for 56 days At the next day after the end of the administration, body weight of each hamster was weighed, followed by performing rotarod test, slope endurance test, and counting of falling down frequency. The types of compounds applied to each group and the results are in Table 25.

PC12-HS cells = test: Evaluation A: neurocyte (cell)-growth-promoting action, ALAMAR BLUE; type: cell-based, rat; conditions: for Cell survival percentage (%): cell-growth promotion; for optimum concentration for exhibiting cell-growth-promoting action: from Table 9
Method: Then, the effects of test samples were judged as follows:
The relative value of 140 to 199: Equivalent effect to that of NK-4, symbol (∘); The relative value of 200 or higher: Stronger effect than that of NK-4, symbol ([…]). • The results are in Table 6.
The relative fluorescent intensity of each well was determined by using the fluorescent intensity of each well with cells, which had been cultured by admixing with D-MEM medium containing 10% by volume of FBS without any of the compounds, and the intensity of the resulting culture was regarded as 100%. The results are expressed as cell survival percentages (%) in Table 9. […]
The test was conducted twice for each test sample in a triplicate manner and the data were averaged.
Seven compounds as in Table 17, NK-234, NK-26, NK-9815, NK-9694, NK-28 and NK-147 as well as NK-4, were each dissolved in DMSO to give a concentration of 5 mg/ml. […] The test was conducted twice for each test sample in a triplicate manner and the data were averaged.

[2] = no compound = 100%, final concentration 12.5 ng/ml
[3] = compound concentration 25 ng/ml
[4] = compound concentration 50 ng/ml
[5] = compound concentration 100 ng/ml
[6] = compound concentration 200 ng/ml

Structure (SMILES): CC[n+]1ccccc1/C=C/c1ccc(N(C)C)cc1 [NK-557]
- Endurable-slant-slope-angle (°) [1]: 45.1 ± 3.7 °
- Cell survival percentage (%) (PC12-HS cells; final concentration 50 ng/ml): 110 ± 6%
- Cell survival percentage (%) (PC12-HS cells; final concentration 200 ng/ml): 241 ± 48%
- Cell survival percentage (%) (PC12-HS cells; final concentration 800 ng/ml): 184 ± 42%
- Cell survival percentage (%) (PC12-HS cells; [2]): 97 ± 25%
- optimum concentration for exhibiting cell-growth-promoting action (PC12-HS cells): 200 ng/mL

Structure (SMILES): CN(C)c1ccc(/C=C/c2oc3ccccc3[n+]2C)cc1 [NK-528]
- Endurable-slant-slope-angle (°) [1]: 43.9 ± 3.0 °

Structure (SMILES): CCN1/C(=C/C=C(/C=C/c2sc3ccccc3[n+]2CC)c2sc3ccccc3[n+]2CC)Sc2ccccc21.[I-].[I-] [NK-100]
- Endurable-slant-slope-angle (°) [1]: 50.3 ± 1.9 °
- Cell survival percentage (%) (PC12-HS cells; final concentration 50 ng/ml): 288 ± 19%
- Cell survival percentage (%) (PC12-HS cells; final concentration 200 ng/ml): 202 ± 4%
- Cell survival percentage (%) (PC12-HS cells; final concentration 800 ng/ml): 82 ± 15%
- Cell survival percentage (%) (PC12-HS cells; [2]): 154 ± 156%
- optimum concentration for exhibiting cell-growth-promoting action (PC12-HS cells): 50 ng/mL

Structure (SMILES): CCCCCCCCCN1C(C)=CS\C1=C/C=C(\C=C\c1scc(C)[n+]1CCCCCCCCC)c1scc(C)[n+]1CCCCCCCCC.[I-].[I-] [NK-393]
- Endurable-slant-slope-angle (°) [1]: 53.1 ± 1.5 °
- Action of enhancing cell growth (%) (PC12-HS cells; 100 μl/well of 100 ng/ml test solution, 3 days, control = 100): 550%

Structure (SMILES): CCCCN1C=C/C(=C/C=C(/C=C/c2cc[n+](CCCC)c3ccccc23)c2cc[n+](CCCC)c3ccccc23)c2ccccc21 [NK-26]
- Endurable-slant-slope-angle (°) [1]: 53.5 ± 1.3 °
- Action of enhancing cell growth (%) (PC12-HS cells; [3]): 275 ± 19%
- Action of enhancing cell growth (%) (PC12-HS cells; [4]): 357 ± 35%
- Action of enhancing cell growth (%) (PC12-HS cells; [5]): 210 ± 12%
- Action of enhancing cell growth (%) (PC12-HS cells; [6]): 210 ± 12%

Structure (SMILES): CCCN1C=CC(=CC=C(C=Cc2cc[n+](CCC)c3ccccc23)c2cc[n+](CCC)c3ccccc23)c2ccccc21.[I-].[I-] [NK-234]
- Action of enhancing cell growth (%) (PC12-HS cells; [3]): 168 ± 45%

Structure (SMILES): CCCCCCCN1C=CC(=CC=C(C=Cc2cc[n+](CCCCCCC)c3ccccc23)c2cc[n+](CCCCCCC)c3ccccc23)c2ccccc21.[I-].[I-] [NK-28]
- Endurable-slant-slope-angle (°) [1]: 51.4 ± 2.2 °
- Action of enhancing cell growth (%) (PC12-HS cells; [3]): 146 ± 10%
- Action of enhancing cell growth (%) (PC12-HS cells; [4]): 111 ± 28%
- Action of enhancing cell growth (%) (PC12-HS cells; [5]): 252 ± 65%
- Action of enhancing cell growth (%) (PC12-HS cells; [6]): 470 ± 17%

Structure (SMILES): CCN1C=CC(=CC=C(C=Cc2cc[n+](CC)c3ccccc23)c2cc[n+](CC)c3ccccc23)c2ccccc21.[I-].[I-] [NK-4]
- endurable-slant-slope-angle (degree) ([1]; 20 μg/kg body weight i.p. once a day, 4-Weeks): 42.6 ± 0.5 degree
- endurable-slant-slope-angle (degree) ([1]; 20 μg/kg body weight i.p. once a day, 5-Weeks): 47.2 ± 0.4 degree
- endurable-slant-slope-angle (degree) ([1]; 20 μg/kg body weight i.p. once a day, 6-Weeks): 44.6 ± 0.5 degree
- endurable-slant-slope-angle (degree) ([1]; 20 μg/kg body weight i.p. once a day, 7-Weeks): 47.0 ± 0.3 degree
- endurable-slant-slope-angle (degree) ([1]; 20 μg/kg body weight i.p. once a day, 8-Weeks): 42.8 ± 0.5 degree
- endurable-slant-slope-angle (degree) ([1]; 20 μg/kg body weight i.p. once a day, 9-Weeks): 44.4 ± 0.5 degree
- endurable-slant-slope-angle (degree) ([1]; 20 μg/kg body weight i.p. once a day, 10-Weeks): 45.8 ± 0.6 degree
- endurable-slant-slope-angle (degree) ([1]; 100 μg/kg body weight i.p. once a day, 4-Weeks): 41.6 ± 0.4 degree
- endurable-slant-slope-angle (degree) ([1]; 100 μg/kg body weight i.p. once a day, 5-Weeks): 45.6 ± 0.2 degree
- endurable-slant-slope-angle (degree) ([1]; 100 μg/kg body weight i.p. once a day, 6-Weeks): 44.4 ± 0.3 degree
- endurable-slant-slope-angle (degree) ([1]; 100 μg/kg body weight i.p. once a day, 7-Weeks): 46.2 ± 0.4 degree
- endurable-slant-slope-angle (degree) ([1]; 100 μg/kg body weight i.p. once a day, 8-Weeks): 47.6 ± 0.4 degree
- endurable-slant-slope-angle (degree) ([1]; 100 μg/kg body weight i.p. once a day, 9-Weeks): 46.8 ± 0.3 degree
- endurable-slant-slope-angle (degree) ([1]; 100 μg/kg body weight i.p. once a day, 10-Weeks): 51.6 ± 0.6 degree
- endurable-slant-slope-angle (degree) ([1]; 500 μg/kg body weight i.p. once a day, 4-Weeks): 43.8 ± 0.4 degree
- endurable-slant-slope-angle (degree) ([1]; 500 μg/kg body weight i.p. once a day, 5-Weeks): 46.4 ± 0.2 degree
- endurable-slant-slope-angle (degree) ([1]; 500 μg/kg body weight i.p. once a day, 6-Weeks): 44.0 ± 0.6 degree
- endurable-slant-slope-angle (degree) ([1]; 500 μg/kg body weight i.p. once a day, 7-Weeks): 44.6 ± 0.5 degree
- endurable-slant-slope-angle (degree) ([1]; 500 μg/kg body weight i.p. once a day, 8-Weeks): 48.0 ± 0.5 degree
- endurable-slant-slope-angle (degree) ([1]; 500 μg/kg body weight i.p. once a day, 9-Weeks): 47.5 ± 0.4 degree
- endurable-slant-slope-angle (degree) ([1]; 500 μg/kg body weight i.p. once a day, 10-Weeks): 51.8 ± 0.4 degree
- Endurable-slant-slope-angle (°) [1]: 55.8 ± 2.5 °
- Cell survival percentage (%) (PC12-HS cells; final concentration 50 ng/ml): 154 ± 8%
- Cell survival percentage (%) (PC12-HS cells; final concentration 200 ng/ml): 309 ± 68%
- Cell survival percentage (%) (PC12-HS cells; final concentration 800 ng/ml): 254 ± 54%
- Cell survival percentage (%) (PC12-HS cells; [2]): 134 ± 8%
- Action of enhancing cell growth (%) (PC12-HS cells; [3]): 149 ± 20%
- Action of enhancing cell growth (%) (PC12-HS cells; [4]): 181 ± 79%
- Action of enhancing cell growth (%) (PC12-HS cells; [5]): 301 ± 65%
- Action of enhancing cell growth (%) (PC12-HS cells; [6]): 438 ± 48%
- optimum concentration for exhibiting cell-growth-promoting action (PC12-HS cells): 200 ng/mL

Structure (SMILES): COc1ccc2oc(/C=C/c3ccc(N(C)C)cc3)[n+](C)c2c1 [NK-1516]
- Endurable-slant-slope-angle (°) [1]: 46.5 ± 2.9 °

Structure (SMILES): CCCCCCCCN1C=CC(=CC=C(C=Cc2cc[n+](CCCCCCCC)c3ccccc23)c2cc[n+](CCCCCCCC)c3ccccc23)c2ccccc21.[I-].[I-] [NK-147]
- Endurable-slant-slope-angle (°) [1]: 49.3 ± 2.1 °
- Action of enhancing cell growth (%) (PC12-HS cells; [3]): 122 ± 14%
- Action of enhancing cell growth (%) (PC12-HS cells; [4]): 136 ± 30%
- Action of enhancing cell growth (%) (PC12-HS cells; [5]): 163 ± 60%
- Action of enhancing cell growth (%) (PC12-HS cells; [6]): 404 ± 76%
